Legend:
[1] = tested on: splenocytes; assay: Splenocyte IFNγ release 48 hours after pseudofracture trauma, mice given 1400 W; assay type: in vivo; settings: C57BL/6 mice, 1400 W 5 mg/kg intraperitoneally
Protocol: Control mice received no experimental manipulation.
Mice were euthanized at 6 and 48 hours.

[2] = tested on: splenocytes; assay: Splenocyte proliferation (3H-dT uptake) 48 hours after pseudofracture + laparotomy, NOX-100 by osmotic pump; assay type: in vivo, C57BL/6 mice; settings: PF+laparotomy, NOX-100 30 mg/kg/hr over 48 hours by intraperitoneal osmotic pump, Mean±SEM
Protocol: The mice were divided into six groups (n=5-10):
(§1) Mice then also received either NOX-100 at a dose of 30 mg/kg/hr or vehicle (Veh) over the 48 hour time period. A controlled, continuous drug delivery rate was established through the use of osmotic pumps inserted intraperitoneally by laparotomy. Laparotomy with pump insertion was performed at the time of trauma (0 hours). Please note that the laparotomy procedure itself is considered a significant trauma. Mice in the ‘Unmanipulated controls’ group received no experimental manipulation.
Mice were euthanized at a 48 hour time point. Measurements at this late time point included assessment of splenocyte responses. Splenocyte proliferation, a well established parameter of immune dysfunction was assessed. […] Splenocyte proliferation was assessed using tritiated thymidine (^3H-dT) uptake as counts per minute (c.p.m.).

[3] = tested on: splenocytes; assay: Splenocyte interferon-gamma release (ELISA) 48 hours after pseudofracture + laparotomy, NOX-100 by osmotic pump; assay type: in vivo, C57BL/6 mice
Protocol: as §1
Additional measurements of splenocyte responses at the late 48 hr time point included assessment of splenocyte interferon-gamma release, an established parameter of immune dysfunction. […] Splenocyte culture supernatants were collected and assessed by ELISA.

Compound | Interferon-gamma release by splenocytes after antiCD3e stimulation following trauma ([1]; antiCD3e 1 μg/ml (FIG. 6)) | Concanavalin A stimulated splenocyte cytokine release (IFNγ) following trauma ([1]; concanavalin A 2.5 μg/ml (FIG. 4)) | Splenocyte proliferation, tritiated thymidine uptake after antiCD3e stimulation ([2]; antiCD3e 1 μg/ml, p<0.05 vs vehicle (FIG. 9B)) | Splenocyte proliferation, tritiated thymidine uptake after concanavalin A stimulation ([2]; concanavalin A 2.5 μg/ml, p=0.062 vs vehicle (FIG. 9A)) | Post-injury decrease in splenocyte release of interferon gamma, effect of administration ([3]; 48 hrs post injury, NOX-100 30 mg/kg/hr (FIGS. 10A-B)) | Splenocyte interferon-gamma release after antiCD3e stimulation ([3]; PF+laparotomy, NOX-100 30 mg/kg/hr over 48 hours by intraperitoneal osmotic pump, antiCD3e 1 μg/ml, Mean±SEM, p<0.05 vs vehicle (FIG. 10B))
CC(=N)NCc1cccc(CN)c1 [1400 W, N-(3-(Aminomethyl)benzyl)acetamidine] | no depression in cytokine release | not significantly reduced |  |  |  | 
CN(C[C@H](O)[C@@H](O)[C@H](O)[C@H](O)CO)C(=S)[S][Na] [NOX-100] |  |  | 45208.9±4890.5 c.p.m. | 33658.6±3787.9 c.p.m. | reversed | 604.70 ± 86.96 pg/mL
